Results: patent publication US20220146526A1, “METHOD FOR EVALUATING SAMPLE, ANALYSIS METHOD, METHOD FOR DETECTING DEGRADED SAMPLE, MARKER FOR DETECTING DEGRADED BLOOD PLASMA SAMPLE, AND MARKER FOR DETECTING DEGRADED SERUM SAMPLE” (SHIMADZU CORPORATION, priority 2019, published 2022)

Legend:
Format in all cases: physicochemical, human
[1] = GC/MS of blood plasma sample: time from blood collection to centrifugation (Table A); settings: for Increase or decrease: detection intensity, after 4 hours vs 15 minutes; for Increase or decrease / Rate of increase or decrease: blood collection to centrifugation; for Rate of increase or decrease: detection intensity relative to 1 at 15 minutes
Outline: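 Read-out is MRM detection intensity by electron-ionization GC/MS on a BPX5 column after methoxymation and trimethylsilylation, expressed relative to a 15-minute collection-to-centrifugation interval. Plasma was prepared from EDTA blood held at 4° C and spun at 4° C, 3000 rpm for 15 minutes, then frozen.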

[2] = GC/MS of blood plasma sample: time from blood collection to cooling of blood (Table B); set-up: key to Rate of increase or decrease / Rate of increase or decrease (first value, increase): detection intensity relative to 1 at cooling time ≤1 min; settings: for Rate of increase or decrease: detection intensity relative to 1 at 1 minute or less, blood collection to cooling 5 minutes; for Increase or decrease: detection intensity, blood collection to cooling 5 minutes or more vs 1 minute or less
Outline: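 Blood drawn at room temperature into EDTA tubes, mixed, then cooled at 4° C. within 1 minute or less versus 5 minutes or more before centrifugation (4° C., 3000 rpm, 15 minutes). Plasma was frozen, methoxymated and trimethylsilylated, and analysed by EI GC/MS in MRM mode. Values are detection intensity relative to the ≤1 minute condition.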

[3] = LC/MS of blood plasma sample: time from blood collection to cooling of blood (Table E); set-up: key to Rate of increase or decrease / Rate of increase or decrease (first value, increase): detection intensity relative to ≤1 min to cooling = 1; settings: for Rate of increase or decrease: detection intensity relative to 1 at 1 minute or less, blood collection to cooling 5 minutes; for Increase or decrease: detection intensity, blood collection to cooling 5 minutes or more vs 1 minute or less
[4] = LC/MS of blood plasma sample: number of times of freezing and thawing (Table F); settings: for Rate of increase or decrease: detection intensity relative to 1 at 2 times; for Increase or decrease: detection intensity
Outline: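 Values are detection intensities normalised to 1 for plasma thawed twice, compared against 4, 6 and 10 freeze-thaw cycles. Measured by electrospray LC/MS in MRM mode, formic acid water/acetonitrile mobile phase, column at 40° C. Plasma came from EDTA blood, cooled to 4° C and spun at 3000 rpm for 15 min.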

[5] = LC/MS of serum sample: time from blood collection to centrifugation (Table J); settings: for Increase or decrease / Time when compound is affected: serum sample, LC/MS; for Increase or decrease: detection intensity vs 15 minutes from blood collection to centrifugation; for Time when compound is affected: time from blood collection to centrifugation, detection intensity changed by 30% or more vs 15 minutes
Outline: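 Detection intensities are expressed relative to 1 for samples centrifuged 15 min after blood collection; centrifugation was at room temperature, 3500 rpm, 5 min. Frozen serum was run by electrospray LC-MS in MRM mode, with 0.1% formic acid water/acetonitrile at 0.25 mL/min on a 40 °C F5 column.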

[6] = LC/MS of serum sample: time from centrifugation to isolation (Table K); set-up: key to Rate of increase or decrease: detection intensity relative to the 30-minute value set as 1; settings: for Rate of increase or decrease: after 6 hours from centrifugation to isolation, detection intensity relative to 1 at 30 minutes; for Increase or decrease / Time when compound is affected: serum sample, LC/MS; for Increase or decrease: detection intensity vs 30 minutes from centrifugation to isolation; for Time when compound is affected: time from centrifugation to isolation, detection intensity changed by 30% or more vs 30 minutes
Outline: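 Serum left at room temperature 30 min, 1 h or 6 h between centrifugation (3500 rpm, 5 min, room temperature) and isolation, then frozen and analysed by LC/MS (Discovery HS F5-3 column, 40° C., 0.1% formic acid water/acetonitrile, electrospray, MRM). Values are detection intensity relative to the 30-min condition set to 1.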

[7] = GC/MS of serum sample: time from blood collection to centrifugation (Table G); settings: for Increase or decrease: detection intensity, after 4 hours vs 15 minutes; for Increase or decrease / Rate of increase or decrease: blood collection to centrifugation; for Rate of increase or decrease: detection intensity relative to 1 at 15 minutes
Outline: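 Values express detection intensity as a ratio to the sample centrifuged 15 minutes after blood collection (taken as 1). Serum was derivatized by methoxymation and trimethylsilylation, then analysed by electron-ionization GC/MS using multiple reaction monitoring on a BPX5 column ramped from 60 to 330° C.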

[8] = different from individual to individual, individuals with decrease, relative to 1 at 15 minutes, collection to centrifugation, after 4 hours
[9] = different from individual to individual, individuals with increase, relative to 1 at 15 minutes, collection to centrifugation, after 4 hours
[10] = freezing and thawing 4 times vs 2 times
[11] = after 4 hours from blood collection to centrifugation, detection intensity relative to 1 at 15 minutes
[12] = different from individual to individual, individuals with decrease, relative to 1 at 1 minute or less, collection to cooling 5 minutes
[13] = different from individual to individual, individuals with increase, relative to 1 at 1 minute or less, collection to cooling 5 minutes

Increase or decrease [1]	Rate of increase or decrease [2]	Increase or decrease [2]	Rate of increase or decrease [3]	Increase or decrease [3]	Rate of increase or decrease ([4]; freezing and thawing 4 times)	Increase or decrease [4, 10]	Rate of increase or decrease [5, 11]	Increase or decrease [5]	Time when compound is affected [5]	Rate of increase or decrease [6]	Increase or decrease [6]	Time when compound is affected [6]	Rate of increase or decrease ([1]; after 4 hours)	Increase or decrease [7]	Rate of increase or decrease ([7]; after 4 hours)	Structure (SMILES)	other results
Different from individual	0.45	Decrease	1.47	Increase	1.77	Increase	1.92	Increase	After 4 hours	2.50	Increase	After 6 hours	–	–	–	O=c1[nH]c(=O)c2[nH]cnc2[nH]1 [Xanthine]	Rate of increase or decrease (second value, decrease) [1, 8]: 0.49; Rate of increase or decrease (first value, increase) [1, 9]: 1.83
Increase	3.56	Increase	–	–	–	–	–	Increase	After 12 hours	–	–	–	3.15	Different from individual	–	CC(C)(CO)[C@@H](O)C(=O)NCCC(=O)O [Pantothenic acid]	Rate of increase or decrease ([4]; freezing and thawing 10 times): 1.43; Increase or decrease ([4]; freezing and thawing 10 times vs 2 times): Increase; Rate of increase or decrease (second value, decrease) [7, 8]: 0.51; Rate of increase or decrease (first value, increase) [7, 9]: 1.78; Rate of increase or decrease ([5]; after 12 hours from blood collection to centrifugation, detection intensity relative to 1 at 15 minutes): 1.43
–	–	–	7.92	Increase	–	–	2.24	Increase	After 4 hours	2.78	Increase	After 6 hours	–	Increase	2.11	O=c1[nH]cnc2nc[nH]c12 [Hypoxanthine]	Rate of increase or decrease ([4]; freezing and thawing 6 times): 2.04; Increase or decrease ([4]; freezing and thawing 6 times vs 2 times): Increase
Decrease	–	Different from individual	–	Different from individual	0.55	Decrease	–	Different from individual	After 4 hours	10.46	Increase	After 6 hours	0.18	Increase	1.67	NC(=O)NC1NC(=O)NC1=O (stereo not shown) [Allantoin]	Rate of increase or decrease (second value, decrease) [2, 12]: 0.57; Rate of increase or decrease (first value, increase) [2, 13]: 1.30; Rate of increase or decrease (second value, decrease) [3, 12]: 0.40; Rate of increase or decrease (first value, increase) [3, 13]: 1.57; Rate of increase or decrease ([5]; after 4 hours, relative to 1 at 15 minutes, different from individual to individual, first value (increase)): 1.78; Rate of increase or decrease ([5]; after 4 hours, relative to 1 at 15 minutes, different from individual to individual, second value (decrease)): 0.40
